From ChEMBL document CHEMBL1130958, “Templates for design of inhibitors for serine proteases: application of the program DOCK to the discovery of novel inhibitors for thrombin” (Bioorg Med Chem Lett, 1998)

Molecular target: Prothrombin (Homo sapiens, UniProt P00734)
Assay: Dissociation constant was evaluated by competitive inhibition of alpha-thrombin using the method of Dixon enzyme assay.

Compound | Ki
c1ccc(CN2CCN(Cc3ccccc3)CCN(Cc3ccccc3)CC2)cc1 | 410 µM
O=C(/N=N/c1ccccc1)NNc1ccccc1 | 1.7 µM
